In the experiment the test system is peripheral blood lymphocytes. Nature of the experiment: Staining of peripheral blood lymphocytes, fluorometer (Example 11). It counts as cell-based, goat. Particulars: 2 μM dye, 520 nm excitation, 600 nm emission. The protocol:
Peripheral blood lymphocytes (PBL) are isolated from fresh heparinized goat blood and resuspended in buffer consisting of 135 mM NaCl, 5 mM KCl, 20 mM HEPES, 1 mM CaCl2, 1 mM MgCl2, pH 7.4 (HBSS+). The cells are resuspended to 10^6 mL (as determined by direct microscopic count using a standard hemocytometer) in a final volume of 3 mL in the above buffer in a quartz cuvette. 5-DAPP/LIVE dye stocks are prepared to final concentrations of 2 mM in DMSO. 3 μL of the octidium dye stock solution is injected into the cuvette to a final concentration of 2 μM. In a fluorometer, the sample is excited at 520 nm and fluorescence emission is monitored at 600 nm over the time required for the fluorescence signal to become stable. Hexidium, butidium and ethidium bromide are injected into separate samples of PBL to determine the relative rates of uptake for these stains. The volume of dye solution added to the cuvette is corrected by a factor relating the absorbance of the dye to the absorbance of a 2 mM octidium solution.

Turning to `CC[n+]1c(-c2ccccc2)c2cc(N)ccc2c2ccc(N)cc21` [ethidium bromide, reference compound], the “increase in fluorescence over time” value was “essentially no increase in fluorescence signal over time”.

These data come from patent US5437980A, “Phenanthridium dye staining of nucleic acids in living cells” (Molecular Probes, Inc., priority 1993, dated 1995).
